Results from patent US20130096100A1, “DI(ARYLAMINO)ARYL COMPOUND” (ASTELLAS PHARMA INC., priority 2007, published 2013).

How the values were obtained:
[1] = molecular target: T1, EML4-ALK fusion protein v1 (Homo sapiens, UniProt Q9UM73, D1529E/I1461V/K1491R); assay: Inhibitory activity against the kinase activity of EML4-ALK fusion protein v1 (Test Example 1); format: biochemical; details: ATP 100 μM, reaction 1 hour, HTRF KinEASE-TK
T1 construct: FLAG (N); made in house
Description: EML4-ALK fusion protein v1 (purified from BA/F3 cells expressing EML4-ALK fusion protein v1) was investigated for its phosphorylation activity toward a peptide substrate by using a kinase activity detection kit (HTRF KinEASE-TK; Cisbio Inc.). […] The ATP concentration used was 100 μM. Another reaction solution was prepared to contain the enzyme protein but no test compound (in which the solvent DMSO alone was added at 0.4% in place of the test compound), followed by reaction in the same manner with or without ATP addition. […] The concentration causing 50% inhibition (IC50) was calculated for each test compound by the logistic regression method.
N-terminally FLAG-tagged EML4-ALK fusion protein v1 was inserted into a vector pMX-iresCD8 capable of co-expression of insert cDNA and cell surface antigen CD8 (J. Biol. Chem., 2001, vol. 276, p. 39012-39020) to create a vector FLAG-EML4-ALKv1/pMX-iresCD8 expressing both FLAG-EML4-ALKv1 and CD8. FLAG-EML4-ALKv1/pMX-iresCD8 was used to create a recombinant retrovirus in the same manner as described above and infected into mouse lymphoid cell line BA/F3 cells. Using a magnetic bead reagent for cell separation and a purification column (anti-CD8 monoclonal antibody immobilized on magnetic beads and a MiniMACS purification column; both are products of Miltenyi Biotec Inc.), cell surface CD8-expressing cells were purified conveniently. […] After washing 3 times with PBS, the cells were lysed in a lysis solution (50 mM Tris.HCl (pH 7.4), 150 mM NaCl, 1% Triton X100, 5 mM EDTA, 5 mM EGTA, 1 mM NaVO4, 1 mM DTT and protease inhibitor cocktail complete). The EML4-ALK fusion protein v1 present in the supernatant obtained after centrifugation was purified using ANTI-FLAG M2 Affinity Gel (SIGMA-ALDRICH Inc.) according to the method described in the product information document.
The EML4-ALK fusion protein v1 purified as above was investigated for its phosphorylation activity toward a peptide substrate using a kinase activity detection kit (HTRF KinEASE-TK; Cisbio Inc.). Using TK substrate 1, which was included in the kit, as the substrate, and after adding no ATP or 100 μM ATP, the mixtures were reacted at room temperature for 1 hour, and the count of HTRF was detected as recommended by the Kits manufacturer.

[2] = tested on: human non-small cell lung cancer cell line NCI-H2228 cells (EML4-ALK fusion protein-expressing cells); assay: Inhibitory effect against anchorage-independent cell growth of NCI-H2228 cells (Test Example 3); format: cell-based; details: 120 h, spheroid plate, 5 days, CellTiter-Glo
Excerpt: Measurement for anchorage-independent cell growth (colony method, etc) has been known to be a system for investigating the anticancer action (pharmacological effect) of test compounds (Clinical Oncology, second edition, Cancer and Chemotherapy Publishers Inc.). In place of the colony method, there is a following method using spheroid plates for measuring the growth of non-attached cells.
(§1) In a 96-well spheroid plate (Sumilon Celltight Spheroid 96U; Sumitomo Bakelite Co., Ltd., Japan), human non-small cell lung cancer cell line NCI-H2228 cells were seeded at 2000 cells per well in RPMI1640 medium (Invitrogen) containing 10% fetal bovine serum. NCI-H2228 cells are those expressing another EML4-ALK fusion protein, which is different from the EML4-ALK fusion protein v1 because it is encoded by an EML4-ALK fusion polynucleotide whose fusion point on EML4 cDNA is different from that of the EML4-ALK fusion polynucleotide v1, but whose ALK region is the same as that of the EML4-ALK fusion polynucleotide v1. The above NCI-H2228 cells seeded in the plate were cultured overnight under 5% CO2 at 37° C., followed by addition of a test compound (final concentration: 10 μM to 1 nM). As a negative control, DMSO used as a solvent was added at the same concentration as the test compound. Then, the cells were cultured under 5% CO2 at 37° C. for 5 days. A cell counting reagent (CellTiter-Glo™ Luminescent Cell Viability Assay; Promega) was added and agitated for 20 minutes, followed by measurement with a luminometer (ML3000 microtiter plate luminometer; Dynatech Laboratories).

[3] = tested on: human non-small cell lung cancer cell line HCC827 cells (mutant EGFR protein-expressing cells); assay: Inhibitory effect against anchorage-independent cell growth of HCC827 cells (Test Example 4); format: cell-based; details: 120 h, spheroid plate, 5 days, CellTiter-Glo
Description: as §1
Evaluation of Inhibitory Effect Against Anchorage-Independent Cell Growth of Human Non-Small Cell Lung Cancer Cell Line HCC827 Cells (Mutant EGFR (with Partial Deletion of Exon 19 in EGFR) Protein-Expressing Cells, American Type Culture Collection)
Evaluation was performed in the same manner as shown in Test Example 3.

[4] = molecular target: T1, EML4-ALK fusion protein v1; assay: Inhibitory effect of compounds against the in vitro kinase activity of EML4-ALK fusion protein v1, IC50 (Test Example 14); format: biochemical; details: 8 concentrations 1000 nM to 0.3 nM
Description: In the same manner as shown in Test Example 12(3), compounds were investigated for their inhibitory effect against the in vitro kinase activity of EML4-ALK fusion protein v1 using the kinase activity detection kit mentioned above. Test compounds were each added to a reaction solution containing the EML4-ALK fusion protein v1 to give 8 final concentrations from 1000 nM to 0.3 nM, followed by addition of ATP. Another reaction solution was prepared to contain the EML4-ALK fusion protein v1 but no test compound (in which the solvent DMSO alone was added at 0.4% in place of the test compound), followed by reaction with or without ATP addition. The rest of the operations were carried out as described in Test Example 12(2). […] The concentration causing 50% inhibition (IC50) was calculated for each test compound by the logistic regression method.

[5] = Toxicity test in rats, 7-day repeated oral administration (Test Example 5); format: in vivo, SD rats; details: 7 days; for Dose: Bone marrow inhibition / Dose: Exacerbation of common symptoms / Non-toxic dose: oral; for Dose: Moribund condition: SD, rat, in vivo, po
Excerpt: Test compounds were each suspended in a 0.5% aqueous methylcellulose solution and repeatedly administered to SD rats (two females and four males in each group) by the oral route at each dose for 7 days.

88 types of kinases = assay: Kinase inhibition profiling, 88 types of kinases (Test Example 6); format: biochemical; details: concentration of 100 nM
MER = molecular target: T2, MER (Homo sapiens, UniProt Q12866); assay: Kinase inhibition profiling, MER (Test Example 6); format: biochemical; details: 100 nM; read-out: inhibitory activity against MER
T2 construct: purchased Carna Biosciences Inc., Japan (contract measurement)
T2 sequence (Q12866 21-999): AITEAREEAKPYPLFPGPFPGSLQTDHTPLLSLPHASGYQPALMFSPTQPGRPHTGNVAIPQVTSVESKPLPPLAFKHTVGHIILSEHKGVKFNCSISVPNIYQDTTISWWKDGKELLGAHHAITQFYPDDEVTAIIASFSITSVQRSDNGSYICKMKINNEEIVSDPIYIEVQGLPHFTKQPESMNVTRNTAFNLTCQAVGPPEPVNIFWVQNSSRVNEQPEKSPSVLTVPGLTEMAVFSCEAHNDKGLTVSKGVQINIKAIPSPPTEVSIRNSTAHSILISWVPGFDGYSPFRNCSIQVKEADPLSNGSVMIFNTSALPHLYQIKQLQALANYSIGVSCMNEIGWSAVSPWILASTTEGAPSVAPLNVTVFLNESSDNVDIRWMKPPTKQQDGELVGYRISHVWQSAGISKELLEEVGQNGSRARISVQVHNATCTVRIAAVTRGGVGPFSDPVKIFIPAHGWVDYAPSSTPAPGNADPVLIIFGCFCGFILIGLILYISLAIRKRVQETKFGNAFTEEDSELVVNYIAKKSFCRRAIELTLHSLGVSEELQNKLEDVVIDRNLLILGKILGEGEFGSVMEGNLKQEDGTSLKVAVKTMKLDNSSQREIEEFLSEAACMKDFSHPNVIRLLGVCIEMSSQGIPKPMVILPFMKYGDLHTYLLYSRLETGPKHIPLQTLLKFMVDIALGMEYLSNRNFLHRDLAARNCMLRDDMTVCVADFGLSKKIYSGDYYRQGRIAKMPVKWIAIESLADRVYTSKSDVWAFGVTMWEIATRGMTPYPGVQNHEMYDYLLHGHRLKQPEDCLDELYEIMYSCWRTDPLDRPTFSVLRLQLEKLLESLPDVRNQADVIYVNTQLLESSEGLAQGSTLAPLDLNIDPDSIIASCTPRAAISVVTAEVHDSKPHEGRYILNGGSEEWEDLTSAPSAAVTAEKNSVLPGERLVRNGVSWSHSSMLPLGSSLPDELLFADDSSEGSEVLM

MNK1 = molecular target: T3, MNK1 (Homo sapiens, UniProt Q9BUB5); assay: Kinase inhibition profiling, MNK1 (Test Example 6); format: biochemical; details: 100 nM; read-out: inhibitory activity against MNK1
T3 construct: purchased Carna Biosciences Inc., Japan (contract measurement)
T3 sequence (Q9BUB5 whole entry): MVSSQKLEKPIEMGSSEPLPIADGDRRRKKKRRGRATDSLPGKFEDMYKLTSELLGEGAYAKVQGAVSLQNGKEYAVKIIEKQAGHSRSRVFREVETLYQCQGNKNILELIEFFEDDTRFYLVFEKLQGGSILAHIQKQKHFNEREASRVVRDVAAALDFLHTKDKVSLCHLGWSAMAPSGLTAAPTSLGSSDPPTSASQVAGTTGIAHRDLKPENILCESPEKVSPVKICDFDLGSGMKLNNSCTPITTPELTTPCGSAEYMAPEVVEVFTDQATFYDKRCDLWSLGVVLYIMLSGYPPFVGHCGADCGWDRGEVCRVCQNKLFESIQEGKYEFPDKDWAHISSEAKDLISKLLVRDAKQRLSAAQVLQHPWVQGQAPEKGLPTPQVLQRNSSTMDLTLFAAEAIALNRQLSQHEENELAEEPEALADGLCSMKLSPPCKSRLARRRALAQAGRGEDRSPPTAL

[6] = tested on: HCC-827 cells (mutant EGFR protein-expressing cells); details: conditions of Non-patent Document 6; cited from earlier work
MUSK = molecular target: T4, MUSK (Homo sapiens, UniProt O15146); assay: Kinase inhibition profiling, MUSK (Test Example 6); format: biochemical; design: purchased Carna Biosciences Inc., Japan (contract measurement); details: 100 nM; read-out: inhibitory activity against MUSK
T4 sequence (O15146 24-869): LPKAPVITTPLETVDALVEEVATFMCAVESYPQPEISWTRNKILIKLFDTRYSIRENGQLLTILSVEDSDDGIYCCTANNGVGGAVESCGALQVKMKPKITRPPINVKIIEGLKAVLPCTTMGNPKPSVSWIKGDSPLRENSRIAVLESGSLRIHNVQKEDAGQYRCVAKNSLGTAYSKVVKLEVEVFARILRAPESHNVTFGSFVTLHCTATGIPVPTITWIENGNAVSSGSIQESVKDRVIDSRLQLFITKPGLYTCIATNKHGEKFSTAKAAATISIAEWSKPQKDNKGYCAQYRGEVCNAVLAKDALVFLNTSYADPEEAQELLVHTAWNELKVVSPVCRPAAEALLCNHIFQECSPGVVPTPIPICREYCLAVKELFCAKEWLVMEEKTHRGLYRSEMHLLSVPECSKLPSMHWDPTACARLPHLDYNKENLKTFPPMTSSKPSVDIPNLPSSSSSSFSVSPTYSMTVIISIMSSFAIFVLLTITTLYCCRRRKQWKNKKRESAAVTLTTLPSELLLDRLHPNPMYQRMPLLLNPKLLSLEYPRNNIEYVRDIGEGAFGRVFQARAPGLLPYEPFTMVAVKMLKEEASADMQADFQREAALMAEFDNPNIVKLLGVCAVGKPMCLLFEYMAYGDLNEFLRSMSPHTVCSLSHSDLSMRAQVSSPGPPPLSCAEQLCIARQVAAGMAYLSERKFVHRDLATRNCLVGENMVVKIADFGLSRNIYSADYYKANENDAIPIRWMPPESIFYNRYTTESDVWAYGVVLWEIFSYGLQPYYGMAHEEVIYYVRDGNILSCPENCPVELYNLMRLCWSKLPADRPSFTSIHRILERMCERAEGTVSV

T1 sequence (Q9UM73 with tags, fused parts or gaps I1461V/K1491R/D1529E): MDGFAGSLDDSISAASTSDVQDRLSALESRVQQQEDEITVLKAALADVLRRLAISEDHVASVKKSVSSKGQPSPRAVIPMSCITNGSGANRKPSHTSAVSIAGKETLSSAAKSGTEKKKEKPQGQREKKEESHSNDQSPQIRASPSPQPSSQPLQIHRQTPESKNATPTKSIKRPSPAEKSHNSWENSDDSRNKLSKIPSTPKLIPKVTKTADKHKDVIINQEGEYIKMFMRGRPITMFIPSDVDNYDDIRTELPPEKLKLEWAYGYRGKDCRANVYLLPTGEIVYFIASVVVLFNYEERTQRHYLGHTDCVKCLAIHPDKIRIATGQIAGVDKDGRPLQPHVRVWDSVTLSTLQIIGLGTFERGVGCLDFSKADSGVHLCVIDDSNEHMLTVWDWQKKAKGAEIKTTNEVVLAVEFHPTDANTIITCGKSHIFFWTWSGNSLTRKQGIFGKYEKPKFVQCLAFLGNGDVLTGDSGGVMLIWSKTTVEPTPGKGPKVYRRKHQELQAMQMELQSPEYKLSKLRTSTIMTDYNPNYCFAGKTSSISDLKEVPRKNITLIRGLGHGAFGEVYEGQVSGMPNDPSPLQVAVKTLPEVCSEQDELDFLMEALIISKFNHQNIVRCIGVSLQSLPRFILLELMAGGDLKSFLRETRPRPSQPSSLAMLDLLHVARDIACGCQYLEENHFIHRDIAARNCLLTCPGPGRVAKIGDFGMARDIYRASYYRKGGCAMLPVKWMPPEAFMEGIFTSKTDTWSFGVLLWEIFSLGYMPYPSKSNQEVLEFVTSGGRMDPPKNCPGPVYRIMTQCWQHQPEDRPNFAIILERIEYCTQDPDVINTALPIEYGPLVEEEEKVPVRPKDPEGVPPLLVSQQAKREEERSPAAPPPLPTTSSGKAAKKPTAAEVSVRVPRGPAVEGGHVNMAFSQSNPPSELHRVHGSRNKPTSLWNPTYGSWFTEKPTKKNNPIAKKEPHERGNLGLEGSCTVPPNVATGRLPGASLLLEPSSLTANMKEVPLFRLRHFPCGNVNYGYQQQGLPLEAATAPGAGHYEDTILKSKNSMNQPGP

Row | IC50 [1] | IC50 [4] | SMILES | IC50 [2] | IC50 [3] | Dose: Bone marrow inhibition ([5]; female SD rats (2 rats)) | Dose: Exacerbation of common symptoms ([5]; female SD rats (2 rats)) | Non-toxic dose ([5]; female SD rats (2 rats)) | Dose: Moribund condition ([5]; female) | Dose: Bone marrow inhibition ([5]; male SD rats (4 rats)) | Dose: Exacerbation of common symptoms ([5]; male SD rats (4 rats)) | Non-toxic dose ([5]; male SD rats (4 rats)) | Dose: Moribund condition ([5]; male) | number of types of kinases (of 88) with 50% or more inhibitory activity (88 types of kinases) | inhibition at 0.1 µM (MER) | inhibition at 0.1 µM (MNK1) | growth inhibitory activity, inhibition rate [6] | inhibition at 0.1 µM (MUSK)
1 | 42 nM | 42 nM | COc1cc(N2CCC(N3CCN(C)CC3)CC2)ccc1Nc1nc(Nc2ccccc2S(=O)(=O)C(C)C)c2ccccc2n1 [Example 1, N^4-[2-(isopropylsulfonyl)phenyl]-N^2-{2-methoxy-4-[4-(4-methylpiperazin-1-yl)piperidin-1-yl]phenyl}quinazoline-2,4-diamine] | 473 nM | 2510 nM | – | – | – | – | – | – | – | – | – | – | – | – | –
2 | – | – | COc1cc(N2CCC(N3CCN(C)CC3)CC2)ccc1Nc1ncc(Cl)c(Nc2ccccc2S(=O)(=O)C(C)C)n1 [TAE684, 5-chloro-N^4-[2-(isopropylsulfonyl)phenyl]-N^2-{2-methoxy-4-[4-(4-methylpiperazin-1-yl)piperidin-1-yl]phenyl}pyrimidine-2,4-diamine, reference compound] | 8.5 nM | 301 nM | 10 mg/kg | 30 mg/kg | 3 mg/kg | 100 mg/kg | 10 mg/kg | 100 mg/kg | 3 mg/kg | (>100) mg/kg | 29 types of kinases | ≥ 90% | 4.8% | 7.5% | ≥ 90%
